System: biotinylated HRP
Test: Model system for selection of SSIA (AK1/streptavidin BSA microparticles + biotinylated HRP)
Format: biochemical, horseradish
Details: SSIA 100 μM final; for light intensity, BTN-HRP0: Btn-HRP 0 ng/mL; for light intensity, BTN-HRP0 / light intensity, BTN-HRP1 / light intensity, BTN-HRP10 / light intensity, BTN-HRP100 / light intensity, BTN-HRP250: total HRP 500 ng/mL; for S1/S0: Btn-HRP 1 ng/mL vs 0; for light intensity, BTN-HRP1: Btn-HRP 1 ng/mL; for S2/S0: Btn-HRP 10 ng/mL vs 0; for light intensity, BTN-HRP10: Btn-HRP 10 ng/mL; for S3/S0: Btn-HRP 100 ng/mL vs 0; for light intensity, BTN-HRP100: Btn-HRP 100 ng/mL; for S4/S0: Btn-HRP 250 ng/mL vs 0; for light intensity, BTN-HRP250: Btn-HRP 250 ng/mL
Description: The model system uses a microparticle conjugated to BSA (bovine serum albumin) labeled with a […] and acridan ketenedithioacetal chemiluminescent label (AK1) as the chemiluminescent-labeled sbp, and biotinylated HRP as the activator-labeled specific binding pair. In the model system, varying amounts of Btn-HRP is added to the chemiluminescent-labeled specific binding pair at 0, 1, 10, 100 and 250 ng/mL. Additional unlabeled HRP is added to reach a total HRP of concentration of 500 ng/mL in each reaction mixture. The unlabeled HRP in combination with the activator-labeled sbp was provided to the chemiluminescent-labeled sbp microparticles to emulate sample. A compound for assessment as an SSIA was also added. This reaction mixture of the model system is then triggered by addition of trigger solution in a manner of assays of the present disclosure.
To prepare the chemiluminescent-labeled sbp on microparticles, Bovine Serum Albumin (BSA) was biotinylated with 4× molar excess of biotin-LC-sulfoNHS (Pierce Biotechnology Inc., Rockford, Ill., USA). Unbound reactants were removed via desalting or dialysis. The biotin-BSA was then reacted with a 5× molar excess of an NHS ester of acridan ketenedithioacetal AK1 in 20 mM sodium phosphate pH 7.2: DMSO 75:25, v/v) followed by desalting in the same buffer. The dual labeled (biotin and AK1) BSA was then coupled with tosyl activated M280 microparticles (Invitrogen Corporation, Carlsbad, Calif., USA) in a 0.1M borate buffer pH 9.5 at a concentration of about 20 μg of labeled BSA per mg of microparticles for 16-24 h at 40° C. After coupling the microparticles were stripped for 1 h at 40° C. with 0.2 M TRIS base, 2% SDS, pH˜11. The stripping process was repeated one additional time. Microparticles were then suspended in a 0.1% BSA/TRIS buffered saline (BSA/TBS) buffer and streptavidin (SA) was added at approximately 15 μg SA per mg microparticles. Streptavidin was mixed with the microparticles for 45-50 min at room temperature. The microparticles were then washed three times and suspended in the same BSA/TBS.
HRP, (Roche Diagnostics, Indianapolis, Ind., USA) was biotinylated with 4× molar excess of biotin-LC-sulfoNHS (Pierce Biotechnology Inc., Rockford, Ill., USA). Alternatively, 25× molar excess of biotin-PEO4-NHS may be used. Unbound reactants were removed via desalting or dialysis.
Each SSIA compound for assessment was solubilized in Buffer II at a concentration at least 10× of the working strength concentration.
25 μl of 1 mg/ml of dual-labeled (biotin and AK1) BSA M280 particles were mixed with 45 μl of working concentration SSIA in Buffer II. The assay volume brought to 85 μl by adding 15 μl of Buffer II. 15 μl of sample containing Btn-HRP:HRP at different ratios (The amount of biotinylated-HRP varied from 0, 1, 10, 100 and 250 ng/mL) was added. The reaction mixture was incubated for 30 min at 37° C., then 100 μL of trigger solution was added and the light intensity recorded. Total volume of reaction mixture, including trigger solution was 200 μL with a final concentration of 100 μM of SSIA.
The screening tests were performed using a modified DxI® Immunoassay System (Beckman Coulter, Inc. Brea, Calif.) as described above.

Molecule | light intensity, BTN-HRP0 | S1/S0 | light intensity, BTN-HRP1 | S2/S0 | light intensity, BTN-HRP10 | S3/S0 | light intensity, BTN-HRP100 | S4/S0 | light intensity, BTN-HRP250 | effectiveness as SSIA in the model system
NNC(=O)c1cccnc1 [Nicotinic Hydrazide] | 42,260 | 1.4 | 58,356 | 49.8 | 2,106,471 | 194.2 | 8,205,320 | 187.5 | 7,923,092 | insuffient effectiveness
O=c1[nH]c(=O)c2[nH]c(=O)[nH]c2[nH]1 [Uric Acid] | 5,532 | 1.8 | 9,760 | 185.3 | 1,025,209 | 1574.9 | 8,712,328 | 1935.8 | 10,708,733 | –
COc1cc(/C=C/C(=O)O)ccc1O [Ferulic acid] | 5,252 | 2.3 | 12,079 | 136.2 | 715,313 | 1672.9 | 8,785,865 | 1950.5 | 10,244,269 | –
Cl.Nc1ccc(O)cc1O [4-aminoresorcinol hydrochloride] | 675 | 1.7 | 1,163 | 110.8 | 74,764 | 489.0 | 330,056 | 384.5 | 259,541 | –
N[C@@H](CS)C(=O)O [Cysteine] | 35,695 | 1.6 | 58,203 | 69.6 | 2,483,411 | 256.3 | 9,147,371 | 285.5 | 10,190,505 | insuffient effectiveness
CC(=O)N[C@@H](CS)C(=O)O [N-Ac-Cysteine, N-acetyl cysteine] | 43,647 | 1.1 | 47,636 | 40.3 | 1,757,607 | 199 | 8,685,795 | 234.2 | 10,219,869 | insuffient effectiveness
CC1(C)OC[C@@H]([C@H]2OC(=O)C(O)=C2O)O1 [5,6iso-propyliene ascorbic acid] | 264 | 3.6 | 961 | 112.3 | 29,645 | 18626.9 | 4,917,499 | 33275 | 8,784,595 | demonstrating utility as SSIA
(+/−)-alpha-Tocopherol | 2,772 | 2.3 | 6,468 | 452.1 | 1,253,187 | 3088.2 | 8,560,469 | 3473.4 | 9,628,184 | –
Oc1ccc(Cl)cc1O [4-chloro catechol, 4-chlorocatechol] | 93 | 2.2 | 205 | 14.8 | 1,373 | 4910.8 | 456,707 | 13558.5 | 1,260,937 | demonstrating utility as SSIA
Nc1ccc(C(=O)O)cc1O [4-Amino-3-hydroxy-benzoic acid] | 972 | 2.9 | 2,808 | 454.2 | 441,455 | 6076.7 | 5,906,521 | 6587.9 | 6,403,425 | demonstrating utility as SSIA
Oc1ccc(O)c(Cl)c1 [2-chloro-1,4-dihydroxybenzene] | 3,571 | 1.1 | 4,007 | 52.9 | 188,920 | 170.8 | 610,053 | 245.3 | 875,831 | –
CC1(C)CC(O)CC(C)(C)N1[O] [TEMPOL] | 22,621 | 1.5 | 33,873 | 86.8 | 1,963,369 | 407.6 | 9,220,799 | 467.6 | 10,578,104 | insuffient effectiveness
O=C(O)c1cccnc1 [Nicotinic Acid] | 34,369 | – | 53,765 | – | 2,228,317 | – | 8,772,523 | – | 9,224,439 | insuffient effectiveness
Cc1c(O)cc2c(c1C)O[C@](C)(CCC[C@H](C)CCC[C@H](C)CCCC(C)C)CC2 [(+)-gamma-Tocopherol] | 6,051 | 1.8 | 10,924 | 278.7 | 1,686,079 | 1437.5 | 8,698,069 | 1699.4 | 10,282,504 | –
CCCCCCCCCCCCCCCC(=O)OC[C@H](O)[C@H]1OC(=O)C(O)=C1O [Ascorbic Acid 6-palmitate] | 81 | 4 | 327 | 502.4 | 40,863 | 100662.3 | 8,187,204 | 125193.6 | 10,182,411 | demonstrating utility as SSIA
COc1cc(C(=O)O)cc(OC)c1O [Syringic Acid] | 14,485 | 1.6 | 23,707 | 64.8 | 939,372 | 547.2 | 7,927,096 | 658 | 9,530,979 | –
COc1ccc2[nH]cc(CCNC(C)=O)c2c1 [Melatonin] | 54,528 | 1.3 | 70,741 | 43.7 | 2,381,361 | 173.7 | 9,471,431 | 190.2 | 10,370,061 | insuffient effectiveness
O=C(O)CCCC[C@@H]1CCSS1 (racemic) [Lipoic Acid] | 35,016 | 2 | 71,751 | 70.0 | 2,450,949 | 246.9 | 8,647,037 | 252.7 | 8,847,921 | insuffient effectiveness

— patent US9029092B2, “Solution phase homogeneous assays” (Beckman Coulter, Inc., priority 2009, dated 2015)
